Test results from patent US8912121B2, “Herbicidal compositions comprising 4-amino-3-chloro-5-fluoro-6-(4-chloro-2-fluoro-3-methoxyphenyl)pyridine-2-carboxylic acid or a derivative thereof and certain PS II inhibitors” (Dow Agrosciences LLC, priority 2012, dated 2014).

Experiments:
[1] = system: SINAR (Sinapis arvensis, wild mustard); experiment: Postemergence herbicidal activity of mixtures in cereal crops, greenhouse; format: in vivo, Sinapis arvensis L.
Procedure: (§1) Seeds of the desired test plant species were planted in Sun Gro MetroMix® 306 planting mixture, which typically has a pH of 6.0 to 6.8 and an organic matter content of about 30 percent, in plastic pots with a surface area of 103.2 square centimeters (cm^2). When required to ensure good germination and healthy plants, a fungicide treatment and/or other chemical or physical treatment was applied. The plants were grown for 7-36 days in a greenhouse with an approximate 14 hour photoperiod which was maintained at about 18° C. during the day and about 17° C. during the night. Nutrients and water were added on a regular basis and supplemental lighting was provided with overhead metal halide 1000-Watt lamps as necessary. The plants were employed for testing when they reached the second or third true leaf stage.
(§2) Treatments consisted of the benzyl ester of 4-amino-3-chloro-5-fluoro-6-(4-chloro-2-fluoro-3-methoxy-phenyl)pyridine-2-carboxylic acid (Compound A), formulated as an SC, a second cereal herbicide alone and then both in combination.
(§3) Other herbicidal components were applied on an active ingredient basis and included PSII-inhibiting herbicides.
(§4) Measured aliquots of benzyl ester of 4-amino-3-chloro-5-fluoro-6-(4-chloro-2-fluoro-3-methoxy-phenyl)pyridine-2-carboxylic acid (Compound A) were placed in 25 milliliter (mL) glass vials and diluted in a volume of 1.25% (v/v) Agri-Dex® crop oil concentrate to obtain stock solutions. Compound requirements are based upon a 12 mL application volume at a rate of 187 liters per hectare (L/ha). Spray solutions of the second cereal herbicide and experimental compound mixtures were prepared by adding the stock solutions to the appropriate amount of dilution solution to form 12 mL spray solution with active ingredients in two- and three-way combinations. Formulated compounds were applied to the plant material with an overhead Mandel track sprayer equipped with an 8002E nozzle calibrated to deliver 187 L/ha over an application area of 0.503 square meters (m^2) at a spray height of 18 inches (46 cm) above average plant canopy. Control plants were sprayed in the same manner with the solvent blank.
(§5) The treated plants and control plants were placed in a greenhouse as described above and watered by sub-irrigation to prevent wash-off of the test compounds. After 20-22 days, the condition of the test plants as compared with that of the control plants was determined visually and scored on a scale of 0 to 100 percent where 0 corresponds to no injury and 100 corresponds to complete kill.
(§6) Colby's equation was used to determine the herbicidal effects expected from the mixtures (Colby, S. R. 1967. Calculation of the synergistic and antagonistic response of herbicide combinations. Weeds 15:20-22).
(§7) The following equation was used to calculate the expected activity of mixtures containing two active ingredients, A and B: Expected=A+B−(A×B/100)

[2] = system: VERPE (Veronica persica, Persian speedwell); experiment: as above; format: in vivo, Veronica persica Poir.
Procedure: as §1, §2, §3, §4, §5, §6, §7

[3] = system: AMARE (Amaranthus retroflexus, redroot pigweed); experiment: as above; format: in vivo, Amaranthus retroflexus L.
Procedure: as §1, §2, §3, §4, §5
(§8) Colby's equation was used to determine the herbicidal effects expected from the mixtures (Colby, S. R. 1967. Calculation of the synergistic and antagonistic response of herbicide combinations. Weeds 15:20-22). […]

[4] = system: LAMPU (Lamium purpureum, purple deadnettle); experiment: as above; format: in vivo, Lamium purpureum L.
Procedure: as §1, §2, §3, §4, §5, §6, §7

[5] = system: GALAP (Galium aparine, catchweed bedstraw); experiment: as above; format: in vivo, Galium aparine L.
Procedure: as §1, §2, §3, §4, §5, §6, §7

[6] = system: IPOHE (Ipomoea hederacea, ivyleaf morningglory); experiment: Pre-emergence soil-applied mixtures, greenhouse; format: in vivo, Ipomoea hederacea (L.) Jacq.
From the text: (§9) Seeds or nutlets of the desired test plant species were planted in a soil matrix prepared by mixing a loam soil (32 percent silt, 23 percent clay, and 45 percent sand, with a pH of about 6.5 and an organic matter content of about 1.9 percent) and calcareous grit in an 80 to 20 ratio. The soil matrix was contained in plastic pots with a volume of 1 quart and a surface area of 83.6 square centimeters (cm^2).
(§10) Treatments consisted of the benzyl ester of 4-amino-3-chloro-5-fluoro-6-(4-chloro-2-fluoro-3-methoxy-phenyl)pyridine-2-carboxylic acid (compound A) formulated as an SC (suspension concentrate) and various herbicidal components alone and in combination. Forms of compound A were applied on an acid equivalent basis.
(§11) Other herbicidal components were applied on an acid equivalent or active ingredient basis and included the PSII-inhibiting herbicides, atrazine formulated as Atrazine® 90WDG, metribuzin formulated as Metribuzin 75DF, simazine formulated as Princep Caliber 90, tebuthiuron formulated as Spike 80DF, cyanazine (technical grade material), hexazinone (technical grade material), linuron (technical grade material), terbuthylazine (technical grade material), and diuron formulated as Diuron 4L.
(§12) Treatment requirements were calculated based upon the rates being tested, the concentration of active ingredient or acid equivalent in the formulation, and a 12 mL application volume at a rate of 187 L/ha.
(§13) For treatments comprised of formulated compounds, measured amounts of compounds were placed individually in 25 mL glass vials and diluted in a volume of 1.25% (v/v) Agri-Dex® crop oil concentrate (COC) to obtain 12× stock solutions. […] Application solutions were prepared by adding an appropriate amount of each stock solution (e.g., 1 mL) and diluted to the appropriate final concentrations with the addition of 10 mL of an aqueous mixture of 1.25% (v/v) COC so that the final spray solutions contained 1.25% (v/v) COC.
For treatments comprised of technical compounds, weighed amounts can be placed individually in 25 mL glass vials and dissolved in a volume of 97:3 (v/v) acetone/DMSO to obtain 12× stock solutions. […]
For treatments comprised of formulated and technical compounds, weighed amounts of the technical materials can be placed individually in 25 mL glass vials and dissolved in a volume of 97:3 (v/v) acetone/DMSO to obtain 12× stock solutions, and measured amounts of the formulated compounds can be placed individually in 25 mL glass vials and diluted in a volume of 1.5% (v/v) COC or water to obtain 12× stock solutions. […]

[7] = system: XANST (Xanthium strumarium, common cocklebur); experiment: Pre-emergence soil-applied mixtures, greenhouse; format: in vivo, Xanthium strumarium L.; details: 29 DAA
From the text: as §9, §10, §11, §12, §13
(§14) For treatments comprised of technical compounds, weighed amounts can be placed individually in 25 mL glass vials and dissolved in a volume of 97:3 (v/v) acetone/DMSO to obtain 12× stock solutions. […] Application solutions can be prepared by adding an appropriate amount of each stock solution (e.g., 1 mL) and diluted to the appropriate final concentrations with the addition of 10 mL of an aqueous mixture of 1.5% (v/v) COC so that the final spray solutions contain 1.25% (v/v) COC. When technical materials are used, the concentrated stock solutions can be added to the spray solutions so that the final acetone and DMSO concentrations of the application solutions are 16.2% and 0.5%, respectively.
(§15) For treatments comprised of formulated and technical compounds, weighed amounts of the technical materials can be placed individually in 25 mL glass vials and dissolved in a volume of 97:3 (v/v) acetone/DMSO to obtain 12× stock solutions, and measured amounts of the formulated compounds can be placed individually in 25 mL glass vials and diluted in a volume of 1.5% (v/v) COC or water to obtain 12× stock solutions. […] Application solutions can be prepared by adding an appropriate amount of each stock solution (e.g., 1 mL) and diluted to the appropriate final concentrations with the addition of an appropriate amount of an aqueous mixture of 1.5% (v/v) COC so that the final spray solutions contain 1.25% (v/v) COC. As required, additional water and/or 97:3 (v/v) acetone/DMSO can be added to individual application solutions so that the final acetone and DMSO concentrations of the application solutions being compared are 8.1% and 0.25%, respectively.
(§16) All stock solutions and applications solutions were visually inspected for compound compatibility prior to application. Spray solutions were applied to the soil with an overhead Mandel track sprayer equipped with a 8002E nozzles calibrated to deliver 187 L/ha over an application area of 0.503 m^2 at a spray height of 18 inches (46 cm) above average pot height. […]

[8] = system: CHEAL (Chenopodium album, common lambsquarters); experiment: Postemergence herbicidal activity of mixtures in cereal crops, greenhouse; format: in vivo, Chenopodium album L.
Procedure: as §1, §2, §3, §4, §5, §8

[9] = system: SETFA (Setaria faberi, giant foxtail); experiment: Pre-emergence soil-applied mixtures, greenhouse; format: in vivo, Setaria faberi Herrm.; details: 27 DAA
From the text: as §9, §10, §11, §12, §13, §14, §15, §16

[10] = system: SASKR (Salsola tragus, Russian thistle); experiment: Postemergence herbicidal activity of mixtures in cereal crops, greenhouse; format: in vivo, Salsola tragus L.
Procedure: as §1, §2, §3, §4, §5, §6, §7

[11] = system: KCHSC (Kochia scoparia, kochia); experiment: as above; format: in vivo, Kochia scoparia (L.) Schrad.
Procedure: as §1, §2, §3, §4, §5, §6, §7

## CC(C)c1ccc(NC(=O)N(C)C)cc1 [Isoproturon, N,N-dimethyl-N′-[4-(1-methylethyl)phenyl]urea, reference compound]
[1]; Isoproturon 375 g ai/ha
  Visual Weed Control (%)-21 DAA SINAR Obs: 13%
[1]; Isoproturon 750 g ai/ha
  Visual Weed Control (%)-21 DAA SINAR Obs: 40%
[2]; Isoproturon 375 g ai/ha
  Visual Weed Control (%) - 21 DAA VERPE Obs: 8%
[2]; Isoproturon 750 g ai/ha
  Visual Weed Control (%) - 21 DAA VERPE Obs: 10%
[2]; Isoproturon 1500 g ai/ha
  Visual Weed Control (%) - 21 DAA VERPE Obs: 13%
[3]; Isoproturon 375 g ai/ha
  Visual Weed Control (%) - 21 DAA AMARE Obs: 3%
[3]; Isoproturon 750 g ai/ha
  Visual Weed Control (%) - 21 DAA AMARE Obs: 10%
[4]; Isoproturon 375 g ai/ha
  Visual Weed Control (%)-21 DAA LAMPU Obs: 3%
[4]; Isoproturon 750 g ai/ha
  Visual Weed Control (%)-21 DAA LAMPU Obs: 3%
[4]; Isoproturon 1500 g ai/ha
  Visual Weed Control (%)-21 DAA LAMPU Obs: 13%
[5]; Isoproturon 375 g ai/ha
  Visual Weed Control (%) - 21 DAA GALAP Obs: 5%
[5]; Isoproturon 750 g ai/ha
  Visual Weed Control (%) - 21 DAA GALAP Obs: 5%
[5]; Isoproturon 1500 g ai/ha
  Visual Weed Control (%) - 21 DAA GALAP Obs: 27%

## CNC(=O)N(C)c1nnc(C(C)(C)C)s1 [Tebuthiuron, N-[5-(1,1-dimethylethyl)-1,3,4-thiadiazol-2-yl]-N,N′-dimethylurea, reference compound]
[6]; Tebuthiuron 420 g ai/ha
  Visual Weed Control (%) - 33 DAA IPOHE Obs: 87%
[6]; Tebuthiuron 840 g ai/ha
  Visual Weed Control (%) - 33 DAA IPOHE Obs: 90%
[7]; Tebuthiuron 210 g ai/ha
  Visual Weed Control (%) - 29 DAA XANST Obs: 40%
[7]; Tebuthiuron 3360 g ai/ha
  Visual Weed Control (%) - 29 DAA XANST Obs: 95%

## CSc1nnc(C(C)(C)C)c(=O)n1N [Metribuzin, 4-amino-6-(1,1-dimethylethyl)-3-(methylthio)-1,2,4-triazin-5(4H)-one, reference compound]
[1]; Metribuzin 25 g ai/ha
  Visual Weed Control (%)-21 DAA SINAR Obs: 8%
[1]; Metribuzin 50 g ai/ha
  Visual Weed Control (%)-21 DAA SINAR Obs: 15%
[8]; Metribuzin 25 g ai/ha
  Visual Weed Control (%)-21 DAA CHEAL Obs: 0%
[8]; Metribuzin 50 g ai/ha
  Visual Weed Control (%)-21 DAA CHEAL Obs: 55%
[9]; 210 g ai/ha
  Visual Weed Control (%) Obs: 43%
[9]; 420 g ai/ha
  Visual Weed Control (%) Obs: 83%
[10]; Metribuzin 25 g ai/ha
  Visual Weed Control (%)-21 DAA SASKR Obs: 8%
[10]; Metribuzin 50 g ai/ha
  Visual Weed Control (%)-21 DAA SASKR Obs: 8%
[10]; Metribuzin 100 g ai/ha
  Visual Weed Control (%)-21 DAA SASKR Obs: 67%
[4]; Metribuzin 25 g ai/ha
  Visual Weed Control (%)-21 DAA LAMPU Obs: 3%
[4]; Metribuzin 50 g ai/ha
  Visual Weed Control (%)-21 DAA LAMPU Obs: 15%
[4]; Metribuzin 100 g ai/ha
  Visual Weed Control (%)-21 DAA LAMPU Obs: 23%
[11]; Metribuzin 25 g ai/ha
  Visual Weed Control (%)-21 DAA KCHSC Obs: 0%
[11]; Metribuzin 50 g ai/ha
  Visual Weed Control (%)-21 DAA KCHSC Obs: 8%
[11]; Metribuzin 100 g ai/ha
  Visual Weed Control (%)-21 DAA KCHSC Obs: 88%
